Patent US10209240B2, “Predicting human developmental toxicity of pharmaceuticals using human stem-like cells and metabolomic ratios” (STEMINA BIOMARKER DISCOVERY, INC., priority 2012, dated 2019)
Read-outs that look alike come from different tables or passages of the source.

Experiments:
[1] = system: hES cells; assay: devTOX computational model predictions (Version 2.0, Version 2.1) from hES cell metabolomics; format: cell-based, human; details: single dose per treatment (Dose column)
Text: The selection process weighted the predictive capacity of a feature, overall intensity, and peak shape to identify very well behaved features/metabolites that could be measured by targeted LC-MS or even by other detection systems.
(§1) This simplified model is based on a ratio of the reference treatment (DMSO) normalized values of ADMA and cystine.

[2] = system: hES cells; assay: ADMA/cystine ratio simplified predictive model in hES cell spent media; format: cell-based, human; details: single dose per treatment; ratios less than 0.9 indicate teratogenicity
Text: as §1
The X-axis is the reference normalized ratio of ADMA/Cystine. The y-axis is the training set of pharmaceuticals. Grey color with triangle glyphs represents teratogens and black color with circle glyphs represents non-teratogens. Each glyph point represents the media value of an independent experimental block (6 reps per block). The crosshair glyphs mark the sample medians. In FIG. 9, grey vertical line is threshold of teratogenicity, grey horizontal lines are the median absolute deviations, and black vertical line designates 1.0. The arrows at the bottom indicate the values used for differentiation of teratogens and nonteratogens, utilizing a cut off of 0.9 (grey line).

[3] = system: Humans; details: cited from earlier work; for Humans (known human developmental toxicity): training and test set; for Known Effect: validation and test set treatments of Example 2
[4] = system: WA09 hES cells; assay: Phase 2 targeted biomarker assay, ornithine/cystine ratio, 9-point dose response
Text: Undifferentiated hES Cell Line Maintenance (Phases 1 and 2). WA09 hES cells were obtained from the WiCell Research Institute (Madison, Wis.) and were maintained in feeder free conditions using mTeSR1 media (StemCell Technologies, Inc., Vancouver, BC, Canada) on hESC-qualified Matrigel (BD Biosciences, San Jose, Calif.) coated 6-well plates. To maintain the undifferentiated stem cell population, differentiated colonies were removed daily through aspiration and media was replaced. Additionally, the hES cells were only used in experiments up to passage 40 and were karyotyped approximately every 10 passages to minimize and monitor the potential for genetic instability. hES cells were passaged at 90-95% confluency (approximately every 7 days) using Versene (Life Technologies, Grand Island, N.Y.). Cell cultures were maintained at 37° C. under 5% CO2.
96-well hES Cell Plating (Phases 1 and 2). All experimental treatments were carried out in 96-well plates. To minimize plating variability and increase reproducibility, hES cells were plated as a single cell suspension and maintained in an undifferentiated state during compound exposure. Prior to plating in the 96-well plates, hES cells were removed from a 6-well plate using TrypLE (Life Technologies). The cells were washed with DMEM/F12 (Life Technologies) and resuspended in mTeSR1 containing 10 μM Y27632 Rho-associated kinase (ROCK) inhibitor (Merck KGaA/Calbiochem, Darmstadt, Germany). The ROCK inhibitor is added to the plating media to increase plating efficiency by decreasing dissociation-induced apoptosis. The inner 60 wells of hESC-qualified Matrigel coated 96-well plates were seeded at a density of 100,000 cells per well. The outer wells of the plate contained an equal volume media to minimize differences in humidity across the plate. Compound exposure began 24 hours after plating.
(§2) Phase 2 hES Cell Compound Exposure. […] The standard compound exposure levels used for most compounds were nine, 3-fold dilutions ranging from 0.04 μM-300 μM (FIG. 1B). […] The stock solution was diluted 1:1000 in mTeSR1 media and subsequent dilutions were performed in mTeSR1 containing 0.1% DMSO such that the final concentration of DMSO was 0.1% in all treatments. hES cells were treated for 72 hours and spent media from the last 24-hour treatment period was collected and added to acetonitrile containing ^13C6 labeled arginine (Cambridge Isotope Laboratories, Andover, Md.) as described under Phase 1. Spent media samples were stored at −80° C. until prepared for LC-HRMS analysis. Cell viability was assessed using the CellTiter-Fluor Cell Viability Assay. A quality control step was included with criteria that the CV of the measured viability RFU of the DMSO control cells could not exceed 10% for a plate to undergo LC-HRMS analysis. A dose response curve was fit to the reference treatment (0.1% DMSO treated control cells) normalized data (Viability RFUTrt X/Viability RFUDMSO) using a four-parameter log-logistic model with the R package “drc” (Ritz and Streibig, 2005, J Statistical Software; 12:1-22).
Sample Preparation (Phases 1 and 2). High molecular weight constituents (>10 KDa) of the spent media samples were removed using a Millipore Multiscreen Ultracel-10 filter plate (EMD Millipore, Billerica, Mass.). Prior to sample filtration, the filter plate was washed with 0.1% NaOH to remove a known contaminant polymer. The plate was then rinsed twice with HPLC-grade water to remove residual polymers and NaOH. Spent media samples were added to the washed filter plate. In Phase 1, samples were spiked with ^13C6 labeled arginine. Samples were centrifuged at 2,000×g at 4° C. for 200 minutes. The filtrate was collected and concentrated overnight in a Savant High Capacity Speedvac Plus Concentrator.

[5] = therapeutic peak plasma in vivo concentration, human, cited from earlier work
[6] = system: WA09 hES cells
Protocol: Phase I hES Cell Compound Exposure. hES cells were treated with a test compound at a single concentration equivalent to the compound's published therapeutic Cmax. […] This was done to ensure that enough cells were present at the time of sample collection to provide a signal for LC-HRMS analysis. For test compound exposure, all compound stock solutions, with the exception of valproic acid, were made with DMSO (Sigma-Aldrich). […] Each 96-well plate included media controls with and without test compound, 0.1% DMSO solvent control cells and cells exposed to a single concentration of eight different test compounds (FIG. 1A). Media controls were included on each plate to assess the impact of test compound on the sample matrix. hES cells were exposed to the test compound for 72 hours, with media and test compound replacement every 24 hours. Cells were monitored throughout the treatment period to ensure that no differentiation was occurring. After 72 hours of treatment, the spent media from the final 24-hour treatment period was collected and added to acetonitrile (Sigma-Aldrich, final acetonitrile concentration 40%), to halt metabolic processes and precipitate proteins from solution. Individual wells from each 96-well plate were collected and analyzed as separate samples. These samples were then stored at −80° C. until prepared for LC-HRMS analysis. Cell viability was assessed using the CellTiter-Fluor Cell Viability Assay as per the manufacturer's instructions (Promega, Madison, Wis.). Quality control parameters were set such that if the coefficient of variation (CV) for the viability relative fluorescent units (RFU) of the 6 cellular samples in a treatment exceeded 10% and no outliers were identified using the Grubb's test (see the worldwide web at graphpad.com/quickcalcs/Grubbs1.cfm), analysis was halted for that compound and the cell culture experiment was repeated. If outliers were present, the outlier sample was removed from analysis. If the CV for the DMSO control cell samples on a plate were outside of the quality control parameters, the entire plate was repeated. hES cell exposure to each of the 23 compounds was replicated a total of nine times.
as §2
Phase 2 Prediction of Developmental Toxicity Potential. […] FIG. 2 illustrates how the assay is applied in this situation. A test compound is considered to be teratogenic at the exposure level where the o/c ratio exceeds the teratogenicity threshold (red box, FIG. 2).

[7] = summarized from TERIS and Briggs et al. 2011, cited from earlier work
[8] = system: Rodent; details: training and test set; cited from earlier work
[9] = system: Rabbit; details: training and test set; cited from earlier work
[10] = test set, teratogenicity potential scored against therapeutic Cmax
[11] = training and test set, o/c ratio scored against therapeutic Cmax

| Targeted Biomarker Assay prediction [4] | Compound | Model Predictions Version 2.0 [1] | Model Predictions Version 2.1 [1] | Model Predictions ADMA/Cystine [2] | Humans (known human developmental toxicity) [3] | Cmax ([5]; training set) [µM] | Viability Prediction [6] | Teratogenicity Potential (μM) Cell Viability ([6]; human, 72 h) [µM] | Known Effect [3] | further results |
| --- | --- | --- | --- | --- | --- | --- | --- | --- | --- | --- |
| NON | O=C1O[C@H]([C@@H](O)CO)C(O)=C1O [Ascorbic Acid] | Non | Non | Non | – | 90 | NON | >300 | – | – |
| NON | CN(C)CCOC(c1ccccc1)c1ccccc1 [Diphenhydramine] | Non | Non | Non | – | – | NON | 78.9 | – | – |
| NON | Cc1ncc(C[n+]2csc(CCO)c2C)c(N)n1 [Thiamine] | Non | Non | Non | NON | 0.67 | NON | >300 | Non | Preclinical in vivo and known human developmental effects ([7]; training set compounds): None; O/C Ratio Prediction [4]: NON; Teratogenicity Potential (μM) O/C Ratio ([4]; human, 72 h): >300 µM |
| – | C=CC=O [Acrolein] | Ter | Ter | Ter | – | – | – | – | Ter | – |
| NON | CC1(C)S[C@@H]2[C@H](NC(=O)[C@H](N)c3ccc(O)cc3)C(=O)N2[C@H]1C(=O)O [Amoxicillin] | Non | Non | Non | NON | – | NON | >300 | Non | Preclinical in vivo and known human developmental effects ([7]; test set compounds): None; Rodent prediction [8]: NON; O/C Ratio Prediction [4]: NON; Teratogenicity Potential (μM) O/C Ratio ([4]; human, 72 h): >300 µM; Cmax ([5]; test set): 20.5 µM |
| – | Nc1nc(N)c2nc(CNc3ccc(C(=O)N[C@@H](CCC(=O)O)C(=O)O)cc3)cnc2n1 [Aminopterin] | Ter | Ter | Ter | TER | – | – | – | Ter | Preclinical in vivo and known human developmental effects ([7]; test set compounds): Craniofacial, limb, skeletal,; Rodent prediction [8]: TER; Rabbit prediction [9]: TER; Teratogenicity Potential (μM) O/C Ratio ([4]; test set, interpolated concentration where o/c ratio dose response curve crosses teratogenicity threshold 0.88, 72 hours): 0.01 µM; O/C Ratio Prediction [4, 10]: TER; Targeted Biomarker Assay prediction [4, 11]: TER; Cmax ([5]; test set): 0.3 µM; Teratogenicity Potential (μM) Cell Viability ([6]; test set, interpolated concentration where cell viability dose response curve crosses teratogenicity threshold 0.88, 72 hours): 0.01 µM; Viability Prediction [6, 10]: TER |
| – | CC(=O)CC(c1ccccc1)c1c(O)c2ccccc2oc1=O (stereo not drawn) [Warfarin] | Ter | Ter | Ter | TER | 23.4 | – | – | – | Targeted Biomarker Assay prediction [4, 11]: TER; Teratogenicity Potential (μM) Cell Viability ([6]; training set, interpolated concentration where cell viability dose response curve crosses teratogenicity threshold 0.88, 72 hours): >300 µM; Viability Prediction ([6]; training set, teratogenicity potential scored against therapeutic Cmax): NON |
| NON | CN(C)CCOC(C)(c1ccccc1)c1ccccn1 (stereo not drawn) [Doxylamine] | Non | Non | Non | NON | 0.38 | NON | >300 | – | – |

| Compound | Targeted Biomarker Assay prediction [4] | Model Predictions Version 2.0 [1] | Model Predictions Version 2.1 [1] | Model Predictions ADMA/Cystine [2] | Humans (known human developmental toxicity) [3] | Cmax ([5]; training set) [µM] | Viability Prediction [6] | Teratogenicity Potential (μM) Cell Viability ([6]; human, 72 h) [µM] | Known Effect [3] | further results |
| --- | --- | --- | --- | --- | --- | --- | --- | --- | --- | --- |
| NC(=O)NO [Hydroxyurea] | TER | Ter | Ter | Ter | TER | 565 | TER | 251.6 | – | Cytotoxicity at the Cmax exposure level ([6]; human, 72 h): greater than 30% |
